Literature values in publication PMC11665553, “12-Lipoxygenase inhibition delays onset of autoimmune diabetes in human gene replacement mice” (JCI Insight, 2024).

Columns and labels:
[1] = set-up: method as in PMID 28842399; conditions: cited from earlier work
NOD mice = tested on: NOD mice; set-up: method as in PMID 28842399; conditions: cited from earlier work

For `CC(=O)NC(c1cccs1)c1cc(Br)c2cccnc2c1O` (centres unmarked) [ML127], the Off-target cytotoxicity [1] is given as “evidence of off-target cytotoxicity”.
In the case of `CNc1oc(-c2cccc3ccccc23)nc1C#N` [ML351], the “Effect in NOD mice” value (NOD mice) is given as “reductions in insulitis and improvements in glucose homeostasis”.
